According to patent US8877748B2, “Heterocyclic fused anthraquinone derivatives, manufacturing method and pharmaceutical composition using thereof” (National Defense Medical Center, priority 2012, dated 2014):
Several values for one entry are separate records, joined by “and”; a condition that tells them apart may be missing. Equal entries are not always repeated. Blank lines part the entries; values can stand above or below the molecule they belong to.

How the values were obtained:
[1] = test system: PC-3 prostate cancer cell line; experiment: SRB assay cell viability, PC-3 prostate cancer cell line; format: cell-based, human; settings: Homo sapiens, PC-3 prostate cancer cell line, Table II prints no unit, μM printed, read-out: SRB assay: 50% inhibition of cancer cell proliferation of sample concentration (IC50) of PC-3 prostate cancer cell line
CCRF-CEM = experiment: NCI screening platform one-dose single concentration screening, leukemia CCRF-CEM; format: cell-based, human; settings: 10 μM
HL-60, TB = experiment: NCI one-dose screening, leukemia HL-60, TB; format: cell-based, human; settings: 10 μM
MOLT-4 = experiment: NCI one-dose screening, leukemia MOLT-4; format: cell-based, human; settings: 10 μM
SR = experiment: NCI one-dose screening, leukemia SR; format: cell-based, human; settings: 10 μM
PRMI-8226 cell line = experiment: NCI one-dose screening, leukemia PRMI-8226; format: cell-based, human; settings: 10 μM
K562cell line = experiment: NCI one-dose screening, leukemia K562; format: cell-based, human; settings: 10 μM
HOP-62 = experiment: NCI one-dose screening, non-small cell lung cancer HOP-62; format: cell-based, human; settings: 10 μM
HOP-92 = experiment: NCI one-dose screening, non-small cell lung cancer HOP-92; format: cell-based, human; settings: 10 μM
NCI-H226 = experiment: NCI one-dose screening, non-small cell lung cancer NCI-H226; format: cell-based, human; settings: 10 μM
NCI-H23 = experiment: NCI one-dose screening, non-small cell lung cancer NCI-H23; format: cell-based, human; settings: 10 μM
NCI-H322M = experiment: NCI one-dose screening, non-small cell lung cancer NCI-H322M; format: cell-based, human; settings: 10 μM; Non-small cell lung cancer
NCI-H460 = experiment: NCI one-dose screening, non-small cell lung cancer NCI-H460; format: cell-based, human; settings: 10 μM
NCI-H522 = experiment: NCI one-dose screening, non-small cell lung cancer NCI-H522; format: cell-based, human; settings: 10 μM
A549/ATCC = experiment: NCI one-dose screening, non-small cell lung cancer A549/ATCC; format: cell-based, human; settings: 10 μM
COLO 205 = experiment: NCI one-dose screening, colon cancer COLO 205; format: cell-based, human; settings: 10 μM
HCC-2998 = experiment: NCI one-dose screening, colon cancer HCC-2998; format: cell-based, human; settings: 10 μM
HCT-116 = experiment: NCI one-dose screening, colon cancer HCT-116; format: cell-based, human; settings: 10 μM
HCT-15 = experiment: NCI one-dose screening, colon cancer HCT-15; format: cell-based, human; settings: 10 μM
KM12 = experiment: NCI one-dose screening, colon cancer KM12; format: cell-based, human; settings: 10 μM
SF-268 = experiment: NCI one-dose screening, CNS cancer SF-268; format: cell-based, human; settings: 10 μM
SF-295 = experiment: NCI one-dose screening, CNS cancer SF-295; format: cell-based, human; settings: 10 μM
SF-539 = experiment: NCI one-dose screening, CNS cancer SF-539; format: cell-based, human; settings: 10 μM
SNB-19 = experiment: NCI one-dose screening, CNS cancer SNB-19; format: cell-based, human; settings: 10 μM
SNB-75 = experiment: NCI one-dose screening, CNS cancer SNB-75; format: cell-based, human; settings: 10 μM
U251 = experiment: NCI one-dose screening, CNS cancer U251; format: cell-based, human; settings: 10 μM
LOX IMVI = experiment: NCI one-dose screening, melanoma LOX IMVI; format: cell-based, human; settings: 10 μM
MALME-3M = experiment: NCI one-dose screening, melanoma MALME-3M; format: cell-based, human; settings: 10 μM
M14 = experiment: NCI one-dose screening, melanoma M14; format: cell-based, human; settings: 10 μM
UACC-62 = experiment: NCI one-dose screening, melanoma UACC-62; format: cell-based, human; settings: 10 μM
UACC-257 = experiment: NCI one-dose screening, melanoma UACC-257; format: cell-based, human; settings: 10 μM
SK-MEL-2 = experiment: NCI one-dose screening, melanoma SK-MEL-2; format: cell-based, human; settings: 10 μM
SK-MEL-28 = experiment: NCI one-dose screening, melanoma SK-MEL-28; format: cell-based, human; settings: 10 μM
IGROV1 = experiment: NCI one-dose screening, ovarian cancer IGROV1; format: cell-based, human; settings: 10 μM
OVCAR-3 = experiment: NCI one-dose screening, ovarian cancer OVCAR-3; format: cell-based, human; settings: 10 μM
OVCAR-4 = experiment: NCI one-dose screening, ovarian cancer OVCAR-4; format: cell-based, human; settings: 10 μM
OVCAR-8 = experiment: NCI one-dose screening, ovarian cancer OVCAR-8; format: cell-based, human; settings: 10 μM
SK-OV-3 = experiment: NCI one-dose screening, ovarian cancer SK-OV-3; format: cell-based, human; settings: 10 μM
786-O = experiment: NCI one-dose screening, renal cancer 786-O; format: cell-based, human; settings: 10 μM
CAKI-1 = experiment: NCI one-dose screening, renal cancer CAKI-1; format: cell-based, human; settings: 10 μM
[2] = NCI one-dose screening, renal cancer A489; format: cell-based, human; settings: 10 μM
SN12C = experiment: NCI one-dose screening, renal cancer SN12C; format: cell-based, human; settings: 10 μM
TK-10 = experiment: NCI one-dose screening, renal cancer TK-10; format: cell-based, human; settings: 10 μM
UO-31 = experiment: NCI one-dose screening, renal cancer UO-31; format: cell-based, human; settings: 10 μM
RXF, 393 = experiment: NCI one-dose screening, renal cancer RXF, 393; format: cell-based, human; settings: 10 μM
DU145 = experiment: NCI one-dose screening, prostate cancer DU145; format: cell-based, human; settings: 10 μM
PC-3 = experiment: NCI one-dose screening, prostate cancer PC-3; format: cell-based, human; settings: 10 μM
MCF7 = experiment: NCI one-dose screening, breast cancer MCF7; format: cell-based, human; settings: 10 μM
HS 578-T = experiment: NCI one-dose screening, breast cancer HS 578-T; format: cell-based, human; settings: 10 μM; Breast cancer
MDA-MB-231/ATCC = experiment: NCI one-dose screening, breast cancer MDA-MB-231/ATCC; format: cell-based, human; settings: 10 μM
MDA-MB-468 = experiment: NCI one-dose screening, breast cancer MDA-MB-468; format: cell-based, human; settings: 10 μM
NCl/ADR-RES = experiment: NCI one-dose screening, breast cancer NCl/ADR-RES; format: cell-based, human; settings: 10 μM; listed under Ovarian cancer
BT-549 = experiment: NCI one-dose screening, breast cancer BT-549; format: cell-based, human; settings: 10 μM
T-47D = experiment: NCI one-dose screening, breast cancer T-47D; format: cell-based, human; settings: 10 μM
MDA, -MB-435 = experiment: NCI one-dose screening, breast cancer MDA, -MB-435; format: cell-based, human; settings: 10 μM; listed under Melanoma
human tumor cell lines = experiment: NCI one-dose screening, Mean / Delta / Range of growth percent over all tested cell lines; format: cell-based; settings: 10 μM

IC50 [1]: 7.44 µM
melting point: 243 to 244 °C
SMILES: Cc1ccc(C)c(Sc2cc3c(c4nsnc24)C(=O)c2ccccc2C3=O)c1 [C20, 4-(2,5-dimethyl-phenyl-thio)anthra[2,1-c] [1,2,5]thiadiazol-6,11-dione]

SMILES: O=C1c2ccccc2C(=O)c2c1cc(Sc1ccc(Cl)cc1)c1nsnc21 [C22, 4-(4-chloro-phenylthio)anthra[2,1-c] [1,2,5]thiadiazol-6,11-dione]
IC50 [1]: > 15 µM
Growth Percent CCRF-CEM (CCRF-CEM): 79.34%
Growth Percent HL-60(TB) (HL-60, TB): 87.34%
Growth Percent MOLT-4 (MOLT-4): 59.21%
Growth Percent SR (SR): 110.89%
Growth Percent RPMI-8226 (PRMI-8226 cell line): 90.15%
Growth Percent K562 (K562cell line): 94.91%
Growth Percent HOP-62 (HOP-62): 94.80%
Growth Percent HOP-92 (HOP-92): 101.98%
Growth Percent NCI-H226 (NCI-H226): 94.77% and 93.41%
Growth Percent NCI-H23 (NCI-H23): 104.26%
Growth Percent NCI-H322M (NCI-H322M): 100.11%
Growth Percent NCI-H460 (NCI-H460): 99.52%
Growth Percent NCI-H522 (NCI-H522): 102.62%
Growth Percent A549/ATCC (A549/ATCC): 103.88%
Growth Percent COLO 205 (COLO 205): 121.41%
Growth Percent HCC-2998 (HCC-2998): 106.82%
Growth Percent HCT-116 (HCT-116): 98.25%
Growth Percent HCT-15 (HCT-15): 98.10%
Growth Percent KM12 (KM12): 101.50%
Growth Percent SF-268 (SF-268): 104.55%
Growth Percent SF-295 (SF-295): 97.26%
Growth Percent SF-539 (SF-539): 107.00%
Growth Percent SNB-19 (SNB-19): 105.18%
Growth Percent SNB-75 (SNB-75): 91.73%
Growth Percent U251 (U251): 103.69%
Growth Percent LOX IMVI (LOX IMVI): 83.24%
Growth Percent MALME-3M (MALME-3M): 105.10%
Growth Percent M14 (M14): 105.44%
Growth Percent UACC-62 (UACC-62): 90.65%
Growth Percent UACC-257 (UACC-257): 95.45%
Growth Percent SK-MEL-2 (SK-MEL-2): 109.49%
Growth Percent SK-MEL-28 (SK-MEL-28): 130.48%
Growth Percent IGROV1 (IGROV1): 84.93%
Growth Percent OVCAR-3 (OVCAR-3): 118.64%
Growth Percent OVCAR-4 (OVCAR-4): 76.82%
Growth Percent OVCAR-8 (OVCAR-8): 88.60%
Growth Percent SK-OV-3 (SK-OV-3): 108.96%
Growth Percent 786-0 (786-O): 108.70%
Growth Percent CAKI-1 (CAKI-1): 86.97%
Growth Percent A498 [2]: 93.03%
Growth Percent SN12C (SN12C): 86.95%
Growth Percent TK-10 (TK-10): 139.80%
Growth Percent UO-31 (UO-31): 79.46%
Growth Percent RXF 393 (RXF, 393): 117.52%
Growth Percent DU145 (DU145): 117.15%
Growth Percent PC-3 (PC-3): 86.94%
Growth Percent MCF7 (MCF7): 86.11%
Growth Percent HS 578T (HS 578-T): 103.37%
Growth Percent MDA-MB-231/ATCC (MDA-MB-231/ATCC): 89.05%
Growth Percent MDA-MB-468 (MDA-MB-468): 46.13%
Growth Percent NCI/ADR-RES (NCl/ADR-RES): 102.42%
Growth Percent BT-549 (BT-549): 98.88%
Growth Percent T-47D (T-47D): 85.04%
Growth Percent MDA-MB-435 (MDA, -MB-435): 106.67%
Growth Percent Delta (human tumor cell lines; delta over all cell lines): 51.95%
Growth Percent Mean (human tumor cell lines; mean over all cell lines): 98.08%
Growth Percent Range (human tumor cell lines; range over all cell lines): 93.67%
